From ChEMBL document CHEMBL1147358, “A New Brominated Indole-3-carbaldehyde from the Marine Bryozoan Zoobotryon verticillatum” (J Nat Prod, 1993)
The source made the active and inactive calls. The rule behind the calls is not given here.

What was measured:
[1] = tested on: Pluteus; assay: Decrease in mobility of Pluteus larvae at 10 ug/ml; format: functional, organism-based
[2] = tested on: Echinoidea; assay: Effect on fertilized sea urchin egg division assessed as delaying of metamorphosis at 5 ug/ml; format: functional
[3] = tested on: Echinoidea; assay: Inhibition of sea urchin egg division at 20 ug/ml; format: functional
[4] = tested on: Echinoidea; assay: Inhibition of sea urchin egg division at 5 ug/ml; format: functional

Structure (SMILES)	Activity [1]	Activity [2]	Activity [3]	Activity [4]
Cn1c(Br)c(C=O)c2cc(Br)c(Br)cc21	Active	Active	–	–
Cn1c(Br)c(C[N+](C)(C)[O-])c2cc(Br)c(Br)cc21	–	–	Active	Active
CN(C)Cc1c(Br)n(C)c2cc(Br)c(Br)cc12	–	–	Active	Active
